The values below come from article PMC6010002, “Synthesis, pharmacology and molecular docking on multifunctional tacrine-ferulic acid hybrids as cholinesterase inhibitors against Alzheimer’s disease” (Journal of Enzyme Inhibition and Medicinal Chemistry, 2018).

Where two headings read alike, the source gives them in different places.

As a reminder, the IC50 is the concentration that inhibits the measured activity by half. Low readings indicate greater potency in that assay, high ones weaker potency in that assay.

The target in data set [1] is T1, AChE (EC 3.1.1.7) from electric eel (Electrophorus electricus, UniProt O42275).
T1 construct: AChE (EC 3.1.1.7, Type VI-S, from electric eel, C3389); purchased Sigma-Aldrich C3389; host or cells: electric eel (natural source)
Put plainly: biochemical. The note with it: for SI (selectivity index, AChE IC50/BuChE IC50): eeAChE IC50 / eqBuChE IC50; for IC50: eeAChE, mean ± SEM of triplicate independent experiments. On the procedure:
(§1) AChE (EC 3.1.1.7, Type VI-S, from electric eel, C3389) and BuChE (EC 3.1.1.8, from equine serum, C0663), 5,5’-dithiobis (2-nitrobenzoic acid) (DTNB, D218200), acetylthiocholine iodide (ATC, A5751) and butyrylthiocholine iodide (BTC, B3253) used as substrates were obtained from Sigma-Aldrich (St. Louis, MO).
(§2) The inhibitory capacity of the synthesised compounds on AChE and BuChE biological activity in this paper were evaluated according to our previously reported method. Briefly, AChE/BuChE stock solution was diluted with 0.2 M phosphate buffer pH 8.0 to give 2.5 units/mL (for electrophorus electricus (eeAChE) and equine serum (eqBuChE)). ATC/BTC iodide solution (0.075 M) was dissolved in deionized water. […] The assay solution was prepared as follows: potassium dihydrogen phosphate (1.36 g, 10 mmol) was dissolved in 100 ml of water. The pH of the solution was then adjusted to 8.0 ± 0.1 with KOH. Stock solutions of the test samples were dissolved in ethanol to give a final concentration of 10 − 4^ M when diluted to the final volume of 3.32 ml. For each compound, a dilution series of five different concentrations 10 − 5–10 − 9^9 M were prepared.
(§3) For measurement, a cuvette containing 3 mL of phosphate buffer, 100 μL of eeAChE or eqBuChE, 100 μL of DTNB, and 100 μL of the test compound solution was added in sequence. The reaction was initiated by adding 20 μL of ATC or BTC and the solution was mixed immediately. […] For the reference value, 100 μL of water was replaced for the test compound solution. For the blank control, additional 100 μL of water was also replaced for the enzyme solution. The measurement of each concentration was assayed in triplicate. GraphPad Prism 5 (GraphPad Software, Inc., La Jolla, CA) was used for data processing. The inhibition curve was fitted by plotting percentage enzyme activity (100% for the reference) versus the logarithm of test compound concentration. The half maximal inhibitory concentration (IC50) values were calculated according to the curve and the data were shown in mean ± SEM.
(§4) Inhibitory activities were presented as IC50 (nM).

Data set [2] has as its target T2, BuChE (EC 3.1.1.8) from horse serum (Equus caballus, UniProt P81908).
T2 construct: BuChE (EC 3.1.1.8, from equine serum, C0663); purchased Sigma-Aldrich C0663; host or cells: equine serum (natural source)
Description: biochemical. The note with it: eqBuChE, mean ± SEM of triplicate independent experiments. As to the method:
as §1, §2, §3, §4

Data set [3] relates to scopolamine-induced cognition-impaired adult ICR mice. Put plainly: Morris water maze in scopolamine-induced cognition-impaired mice. Type of data set: in vivo. The conditions noted are these: 30 mg/kg oral, scopolamine 1 mg/kg i.p., mean ± SEM n = 6. On the procedure: Behavioral studies were performed using the Morris water maze[25] according to our method reported previously. Adult male imprinting control region (ICR) mice (8–10 weeks old, weight 20–25 g) were obtained from the Yangzhou University Medical Center (Yangzhou, China). All animal handling and experimental protocols were approved by the Institutional Animal Care and Use Committee of the China Pharmaceutical University. Scopolamine hydrobromide was purchased from Aladdin Reagents (S107418, Shanghai, China).
A circular pool (120 cm in diameter, 60 cm height) which was fixed with an escape platform (10 cm diameter) and filled to a depth of 40 cm fresh water (kept at 25 °C) composed the water maze and this water maze placed in a lit room was used to evaluate the cognition function and memory capacity of mice according to our previously described method[24] . After five days of learning and memory training, a probe trial was performed on day 6. For the evaluation of cognitive function, each mouse was individually trained on a visible-platform (labeled by a small flag, 5 cm tall) for two days and was followed by a hidden-platform version (placed 1 cm below the surface of the water) of the water maze from day 3 to day 5. All mice were subjected to two training trials daily, each of which lasted for 90 s. The time for each mouse to find the platform (a successful escape) was recorded. […] On the last day (day 6), a probe trial was given to the mice in which the platform was removed from the pool and each mouse was allowed 90 s to search for the platform. The time the animals spent to reach the missing platform location and the number of times they crossed that location were recorded.
Data for the time of escape latency, the swimming trajectory, and the number of visual platform crossings were recorded by Panlab SMART 3.0 (Panlab, S.L.U, Spain) and GraphPad Prism 5 was used to evaluate the level of memory retention.

For another data set, the system named is adult male ICR mice. Type of data set: in vivo. The conditions noted are these: serum, 3 mg/100 g body weight, mean ± SEM n = 6. As to the method: . Heparinised serum was obtained from the retrobulbar plexus 8, 22, and 36 h after the administration and were subjected to hepatotoxicity evaluation. The activity of aspartate aminotransferase (AST) and alanine aminotransferase (ALT), two indicators of liver damage, was determined by a commercial assay kit (EF551 and EF550 for ALT, EH027 and EF548 for AST, Wako, Japan). The data were analysed by Biochemical Analyzer (HITACHI 7020, Japan).
Mice were sacrificed 1 h after the collection of retrobulbar blood and livers were removed for morphological studies by using the immunohistochemical method. Two 3 mm sections of each liver extending from the hilus to the margin of the left lateral lobe were isolated using ultra-thin semiautomatic microtome (Leica RM2245, Germany) and placed in 10% buffered formaldehyde immediately, fixed for two days, and embedded together in one paraffin block by using paraffin embedding station (Leica EG1150H, Germany). Subsequently, 5 μm sections were prepared from these paraffin blocks. They were deparaffinated and stained with hematoxylin and eosin (H&E) for histopathological examinations.

Another data set relates to HepG2 cells. The note with it: 24 h, MTT, mean ± SEM n = 3. As to the method: To determine the possible drug-induced hepatotoxicity, 10d and 10g were selected for preliminary hepatotoxicity evaluation. Heparinised serum was obtained after the treatment of the compounds at 8, 22, and 36 h, respectively. […] Additionally, immunohistochemical staining was performed on the liver tissues for the histopathological study.
Methods for Cell Viability Assay. The human hepatocellular HepG2 cells were […]
Cells were seeded into 96-well plates at a density of 3
37 °C for the following experiments. For cytotoxicity test, cells were treated with 0.05- […]
Cell viability was measured by 3-(4,5- dimethylthiazol-2-yl)-2,5-diphenyltetrazolium bromide (MTT) analysis. In brief, 15 µL of MTT was added into each well and incubated at 37 °C for 4 h. The […]
viability was calculated and presented by the percentage of vehicle-treated group.

T1 sequence (O42275 24-633): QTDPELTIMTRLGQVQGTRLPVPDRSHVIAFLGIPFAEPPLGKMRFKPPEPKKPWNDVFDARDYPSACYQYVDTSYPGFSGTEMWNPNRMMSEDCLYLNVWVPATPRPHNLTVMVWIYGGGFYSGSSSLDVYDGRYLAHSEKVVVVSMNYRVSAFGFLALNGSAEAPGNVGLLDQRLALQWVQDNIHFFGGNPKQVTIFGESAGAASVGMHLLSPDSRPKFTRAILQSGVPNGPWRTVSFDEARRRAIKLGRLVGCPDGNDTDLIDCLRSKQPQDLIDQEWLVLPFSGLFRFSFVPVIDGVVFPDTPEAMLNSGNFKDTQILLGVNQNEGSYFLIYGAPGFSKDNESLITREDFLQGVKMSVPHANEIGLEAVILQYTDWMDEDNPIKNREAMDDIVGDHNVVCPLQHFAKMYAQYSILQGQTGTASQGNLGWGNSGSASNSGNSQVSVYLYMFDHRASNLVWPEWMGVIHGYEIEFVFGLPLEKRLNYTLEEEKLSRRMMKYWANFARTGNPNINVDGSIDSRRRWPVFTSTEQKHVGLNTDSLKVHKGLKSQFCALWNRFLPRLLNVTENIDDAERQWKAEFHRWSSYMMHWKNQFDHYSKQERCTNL
T2 sequence (P81908 whole entry): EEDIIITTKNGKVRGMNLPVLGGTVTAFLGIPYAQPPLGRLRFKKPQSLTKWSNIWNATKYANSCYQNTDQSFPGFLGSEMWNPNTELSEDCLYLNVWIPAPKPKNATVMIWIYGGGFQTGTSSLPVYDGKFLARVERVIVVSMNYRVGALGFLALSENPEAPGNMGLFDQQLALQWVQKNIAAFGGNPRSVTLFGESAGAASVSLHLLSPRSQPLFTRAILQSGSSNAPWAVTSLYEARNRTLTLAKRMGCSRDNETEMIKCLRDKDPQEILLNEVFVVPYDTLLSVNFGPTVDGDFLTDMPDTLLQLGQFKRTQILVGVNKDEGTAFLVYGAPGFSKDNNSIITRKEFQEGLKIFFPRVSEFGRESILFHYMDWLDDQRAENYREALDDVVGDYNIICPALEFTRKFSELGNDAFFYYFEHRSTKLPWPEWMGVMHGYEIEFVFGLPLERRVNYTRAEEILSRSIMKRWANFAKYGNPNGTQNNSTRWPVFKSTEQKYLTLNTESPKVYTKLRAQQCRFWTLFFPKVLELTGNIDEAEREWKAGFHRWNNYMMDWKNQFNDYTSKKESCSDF

Consider `COc1cc(/C=C/C(=O)NCCNc2c3c(nc4ccccc24)CCCC3)ccc1OCc1ccccc1C` [Compound 10e, (E)-3–(3-methoxy-4-((2-methylbenzyl)oxy)phenyl)-N-(2-((1,2,3,4-tetrahydroacridin-9-yl)amino)ethyl)acrylamide], for which, in data set [1], the “SI (selectivity index, AChE IC50/BuChE IC50)” value is 0.7 and the IC50 is 64.5 ± 7.4 nM. The compound also registered an IC50 in data set [2] of 98.6 ± 19.1 nM.
Consider `COc1cccc(COc2ccc(/C=C/C(=O)NCCNc3c4c(nc5ccccc35)CCCC4)cc2OC)c1` [Compound 10l, (E)-3–(3-methoxy-4-((3-methoxybenzyl)oxy)phenyl)-N-(2-((1,2,3,4-tetrahydroacridin-9-yl)amino)ethyl)acrylamide], for which, in data set [1], the “SI (selectivity index, AChE IC50/BuChE IC50)” value worked out at 0.7 and the midpoint of inhibition, the IC50, lay at 143 ± 40.1 nM. Moreover, in data set [2], the concentration for half-maximal inhibition (IC50) was found to be 195 ± 16.5 nM.
As for `COc1cc(/C=C/C(=O)NCCNc2c3c(nc4ccccc24)CCCC3)ccc1OCc1ccc(C(F)(F)F)cc1` [Compound 10k, (E)-3–(3-methoxy-4-((4-(trifluoromethyl)benzyl)oxy)phenyl)-N-(2-((1,2,3,4-tetrahydroacridin-9-yl)amino)ethyl)acrylamide], in data set [1], the “SI (selectivity index, AChE IC50/BuChE IC50)” value was determined as 2.4. Besides, the IC50 came out at 129 ± 16.5 nM in data set [1] and 52.7 ± 6.3 nM in data set [2].
For `COc1cc(/C=C/C(=O)NCCNc2c3c(nc4ccccc24)CCCC3)ccc1OCc1ccc(C(C)(C)C)cc1` [Compound 10i, (E)-3–(4-((4-(tert-butyl)benzyl)oxy)-3-methoxyphenyl)-N-(2-((1,2,3,4-tetrahydroacridin-9-yl)amino)ethyl)acrylamide], in that order: 1.8, 284 ± 59.2 nM and 158 ± 22.8 nM.
On to `COc1cc(/C=C/C(=O)NCCNc2c3c(nc4ccccc24)CCCC3)ccc1OCc1ccccc1` [Compound 10a, (E)-3–(4-(benzyloxy)-3-methoxyphenyl)-N-(2-((1,2,3,4-tetrahydroacridin-9-yl)amino)ethyl)acrylamide], for which, in data set [1], the “SI (selectivity index, AChE IC50/BuChE IC50)” value amounted to 0.4 and half-maximal inhibition (IC50) required 92.2 ± 18.3 nM. In addition, inhibition in data set [2] was half-maximal at 215 ± 39.5 nM (IC50).
On the same counts, the results for `COc1cc(/C=C/C(=O)NCCNc2c3c(nc4ccccc24)CCCC3)ccc1OCc1ccc(C)cc1` [Compound 10h, (E)-3–(3-methoxy-4-((4-methylbenzyl)oxy)phenyl)-N-(2-((1,2,3,4-tetrahydroacridin-9-yl)amino)ethyl)acrylamide] are 0.9, 140 ± 34.4 nM and 147 ± 22.4 nM.
On the same counts, the results for `COc1cc(/C=C/C(=O)NCCNc2c3c(nc4ccccc24)CCCC3)ccc1OCc1ccc(Cl)cc1` [Compound 10c, (E)-3–(4-((4-chlorobenzyl)oxy)-3-methoxyphenyl)-N-(2-((1,2,3,4-tetrahydroacridin-9-yl)amino)ethyl)acrylamide] are 1.6, 101 ± 14.6 nM and 62.5 ± 9.9 nM.
For `COc1cc(/C=C/C(=O)NCCNc2c3c(nc4ccccc24)CCCC3)ccc1OCc1cccc(C)c1` [Compound 10f, (E)-3–(3-methoxy-4-((3-methylbenzyl)oxy)phenyl)-N-(2-((1,2,3,4-tetrahydroacridin-9-yl)amino)ethyl)acrylamide], in that order: 0.2, 63.2 ± 13.5 nM and 257 ± 3.7 nM.
`Nc1c2c(nc3ccccc13)CCCC2` [Tacrine] showed a Distance to target in data set [3] of 725.64 ± 165.15 cm. Besides, the “Speed in virtual platform” value in data set [3] turned out to be 15.78 ± 1.03 cm/s. For the same compound, the Latency to target in data set [3] (probe trial) is 25.85 ± 5.52 s. In addition, the ALT is listed as 31.8 ± 2.0 U/L in the data set with adult male ICR mice (8 h after i.g. administration), 25.4 ± 2.8 U/L with adult male ICR mice (22 h after i.g. administration) and 25.1 ± 2.7 U/L in the data set on adult male ICR mice (36 h after i.g. administration). For the same compound, the AST in the data set with adult male ICR mice (8 h after i.g. administration) was found to be 133.7 ± 9.0 U/L; in the data set on adult male ICR mice (22 h after i.g. administration), 124.3 ± 12.1 U/L; in the data set with adult male ICR mice (36 h after i.g. administration), 112.4 ± 11.4 U/L. For the same compound, the “Cell viability (% of vehicle)” value in the data set on HepG2 cells (HepG2, 25 µM) is reported as 106.2 ± 2.3 % of vehicle; with HepG2 cells (HepG2, 125 µM), 97.2 ± 2.9 % of vehicle; in the data set on HepG2 cells (HepG2, 250 µM), 58.9 ± 0.7 % of vehicle; in the data set with HepG2 cells (HepG2, 500 µM) it was 22.7 ± 1.6 % of vehicle.
`COc1ccc(COc2ccc(/C=C/C(=O)NCCNc3c4c(nc5ccccc35)CCCC4)cc2OC)cc1` [Compound 10m, (E)-3–(3-methoxy-4-((4-methoxybenzyl)oxy)phenyl)-N-(2-((1,2,3,4-tetrahydroacridin-9-yl)amino)ethyl)acrylamide]: the “SI (selectivity index, AChE IC50/BuChE IC50)” value in data set [1] amounted to 0.6. In addition, the half-maximal inhibitory concentration (IC50) in data set [1] stood at 75.5 ± 12.8 nM; in data set [2] it was 134 ± 11.1 nM.
On the same counts, the results for `COc1cc(/C=C/C(=O)NCCNc2c3c(nc4ccccc24)CCCC3)ccc1OCc1ccc(F)cc1` [Compound 10b, (E)-3–(4-((4-fluorobenzyl)oxy)-3-methoxyphenyl)-N-(2-((1,2,3,4-tetrahydroacridin-9-yl)amino)ethyl)acrylamide] are 0.7, 115 ± 31.2 nM and 163 ± 16.6 nM.
